A short description of this data set: Human HepG2 cell viability assay in 384 well format. The format is toxicity, cell-based. More on the design: dose 125 nL, time 70.5 hour; cytotoxicity at 70.5 h: concentration not given beside the values. Particulars: HepG2 cells, read-out: Inhibition.
Consider `CCCS(=O)(=O)N1C[C@@H]2CN(Cc3cnn(C)c3)CCO[C@@H]2C1`, for which the cytotoxicity at 70.5 h was -1.12%.
For `O=C(CN1CCN(c2ccc3nncn3n2)CC1)NC1CCCC1`, the cytotoxicity at 70.5 h was 1.25%.
Regarding `CCOc1cccc(NCc2cnc(N3CCN(C)CC3)nc2)n1`, the cytotoxicity at 70.5 h turned out to be 3.56%.
Consider `Cn1cnnc1C1CCCN(C(=O)c2cc3ccccc3[nH]2)C1` (centres undefined), for which the cytotoxicity at 70.5 h is -11.2%.
Take `Cc1nc(N(C)C)ncc1C(=O)NCCCn1nccc1C1CC1`: the cytotoxicity at 70.5 h stood at 6.49%.
As for `CC1(C(=O)N2CCSCC2)CNCCO1` (centres undefined), the cytotoxicity at 70.5 h was 11.8%.
For the compound `COCCCN(Cc1ccccn1)S(=O)(=O)Cc1ccccc1`, the cytotoxicity at 70.5 h is -18.4%.
For the compound `Cc1ncc2c(n1)C1(CCN(C(=O)C3CC3)CC1)OCC2`, the cytotoxicity at 70.5 h is -9.75%.
To `CN(Cc1ccccc1)C(=O)CCN1CCC2(CC1)[C@H](O)C[C@@H]2O` belongs -8.64%; to `O=C1NCC2(CCCN(Cc3ccccc3F)C2)Oc2ccccc21` (centres undefined), -14.5%; to `Cc1nccn1C1CCCN(C(=O)c2cccc(S(C)(=O)=O)c2)C1` (centres undefined), -11.1%.
Consider `Cc1cnn(CCCn2c(C)cc(C(F)(F)F)cc2=O)c1`, for which the cytotoxicity at 70.5 h was -9.21%.
On to `Cc1nc(C)c(C(=O)Nc2cc(N3CCC(C)CC3)ncn2)s1`, for which the cytotoxicity at 70.5 h is 0.183%.
With `O=C(C1CCC1)N1CCC2(CCCN2CC2CC2)CC1`, the cytotoxicity at 70.5 h is -0.744%.
As for `O=C(Cc1cnccn1)N1CCC(c2nccn2CC2CC2)CC1`, the cytotoxicity at 70.5 h was determined as 31.6%.
Take `Cc1nc(C)c(CN(C)C2CCN(C(=O)OC(C)(C)C)CC2)s1`: the cytotoxicity at 70.5 h was -7.19%.
To `O=C(c1cccn1Cc1cccs1)N1CCN2CCCCC2C1` (centres undefined) belongs 4.27%; to `O=C(Nc1cccc(C(=O)OCC2CCCN2)c1)c1ccoc1` (centres undefined), 5.78%.
The same measure for `Cc1c(S(=O)(=O)NCC(C)Cn2cc(Cl)cn2)cnn1C` (centres undefined): 1.36%.
Regarding `O=C(CN1CCc2ccccc21)Nc1ccc(OC(F)F)cc1`, the cytotoxicity at 70.5 h was determined as 9.55%.
The same measure for `Cc1ncc(CN2CCCC(c3nc4ccccc4n3C(C)C)C2)s1` (centres undefined): -2.93%; for `N#Cc1cccnc1NCCc1cc(F)cc2c1OCOC2`: 24%; for `CCS(=O)(=O)N1CCN(C(C)c2ccccc2OC)CC1` (centres undefined): -10.2%.
With `CN(C)C(=O)CN1CCC(c2nnc(Cn3cccn3)n2C2CC2)CC1`, the cytotoxicity at 70.5 h is -12%.
To `CCC(=O)NCc1cc(Br)ccc1OC(F)F` belongs -6%.
On to `O=C(O)c1cc(-c2ccncc2)cc(S(=O)(=O)NCc2ccccn2)c1`, for which the cytotoxicity at 70.5 h is -4.27%.
Consider `COCC(=O)NCC1Cn2nnc(-c3ccncc3)c2CO1` (centres undefined), for which the cytotoxicity at 70.5 h is -3.5%.
As for `CN(C)C[C@H]1C[C@H](CO)CN(C(=O)c2cc(S(N)(=O)=O)ccc2F)C1`, the cytotoxicity at 70.5 h was -3.55%.
The same measure for `CC(=O)c1cnc(NCC2OCCc3ccccc32)nc1C` (centres undefined): -9.22%; for `Cc1ccccc1C(C(=O)O)N(C)CC1CCOCC1` (centres undefined): -2.17%.
Regarding `O=C(NCCC1CC1)NCc1cccc(-n2ccnc2)c1`, the cytotoxicity at 70.5 h is -2.8%.
In the case of `O=C(c1c[nH]cn1)N1CCCn2c(nnc2Cn2cccc2)C1`, the cytotoxicity at 70.5 h was -1.3%.
Take `O=C(CCCn1cncn1)N1CCCC1c1nc(-c2ccccc2)no1` (centres undefined): the cytotoxicity at 70.5 h was -1.82%.
Take `CCc1nc(C2CCCN(C(=O)c3ccncc3)C2)no1` (centres undefined): the cytotoxicity at 70.5 h was -1.21%.
As for `CC(C)(C)NC(=O)Cn1nc(C2CC2)cc(C(F)(F)F)c1=O`, the cytotoxicity at 70.5 h was -1.18%.
Take `CCC(SC)C(=O)N1CCC(n2cccn2)CC1` (centres undefined): the cytotoxicity at 70.5 h is -6.08%.
With `Cc1ncc(C(=O)N2CC[C@@]3(O)CCN(C(=O)N(C)C)C[C@H]3C2)cn1`, the cytotoxicity at 70.5 h is -12.2%.
Take `O=C(Cc1cc(-c2ccc3c(c2)OCO3)on1)NC1CCCC1`: the cytotoxicity at 70.5 h is -8.33%.
As to `CC(C)N1CCO[C@@H]2CN(S(=O)(=O)c3cccs3)CC[C@@H]2C1`, the cytotoxicity at 70.5 h is -7.93%.
Turning to `O=C(c1cccc2c1OCO2)N1CCCC1Cn1cccn1` (centres undefined), the cytotoxicity at 70.5 h was -8.17%.
For the compound `COCC(=O)NCc1cc(=O)n2c(n1)CN(Cc1nccs1)CCC2`, the cytotoxicity at 70.5 h is -5.03%.
Turning to `NC(=O)C1(c2cnccn2)CCCN1C(=O)Cc1ccsc1` (centres undefined), the cytotoxicity at 70.5 h was -5.34%.
Consider `CC[C@H](C)[C@@H](CO)NC(C)Cc1ccc(Cl)cc1` (some centres undefined), for which the cytotoxicity at 70.5 h is -2.7%.
As for `CCN1CCN(C[C@@H]2CN(c3ncc(Cl)cc3Cl)C[C@@H]2CO)CC1`, the cytotoxicity at 70.5 h is -6.63%.
Take `c1ccc(C2CCCN2C2CSCCSC2)nc1` (centres undefined): the cytotoxicity at 70.5 h is -4.87%.
For the compound `Cc1cccc(CN2CCOCC2c2[nH]ncc2C)n1` (centres undefined), the cytotoxicity at 70.5 h was -2.39%.
Regarding `Cc1nc(-c2c(-c3ccccc3)ncn2CCCN2CCOCC2)c[nH]1`, the cytotoxicity at 70.5 h is -8.17%.
Consider `CCCc1nnc(N2CCC(N3CCCC3)CC2)o1`, for which the cytotoxicity at 70.5 h turned out to be 26%.
For `Cc1nc(C)n(C2CCCN(C(=O)c3cscn3)C2)n1` (centres undefined), the cytotoxicity at 70.5 h is -2.85%.
`CC(=O)N1CCc2ncn(C)c2C1C(=O)N1CCCC1` (centres undefined): the cytotoxicity at 70.5 h was -6.96%.
On to `CCn1nnc2c1C(COC)CN(C(=O)Cc1ccccn1)C2` (centres undefined), for which the cytotoxicity at 70.5 h is -15.3%.
Take `Cc1ccc(CN2CCN(c3ncccc3Cl)CC2CCO)cc1` (centres undefined): the cytotoxicity at 70.5 h is -0.712%.
On to `O=C(NCc1ccoc1)NC1CCCN(c2ncccn2)C1` (centres undefined), for which the cytotoxicity at 70.5 h was -4.3%.
Consider `CNc1nc(CNC(=O)Nc2ccc(SC)c(F)c2)cs1`, for which the cytotoxicity at 70.5 h is -1.49%.
Turning to `COCCN1CCN(Cc2ccoc2)Cc2cccnc21`, the cytotoxicity at 70.5 h turned out to be 6.66%.
Take `Cc1cc(NCCNc2cccnc2)nc(N)n1`: the cytotoxicity at 70.5 h is 12.3%.
With `COc1ccc(OCCNC(=O)CN(C)Cc2nnc(C)n2C)cc1`, the cytotoxicity at 70.5 h is 29.6%.
Turning to `O=C(NCCc1ccncc1)c1cccnc1OCC(F)(F)F`, the cytotoxicity at 70.5 h was -1.85%.
To `COCc1ccc(C(=O)N2CCCN(Cc3cscn3)CC2)cc1` belongs -6.01%; to `CN1CC2(CCN(C(=O)c3ccc(=O)n(C)c3)CC2)CC1=O`, 18.9%; to `CN1CCCC(CCCc2cccnc2)(C(N)=O)C1` (centres undefined), -3.41%.
The same measure for `CCS(=O)(=O)N1CCc2ccc(NC(=O)Nc3cccc(C#N)c3)cc21`: 17.6%.
As for `O=C(NCC1CCCO1)c1nc2c(s1)CCCN2CC1CC1` (centres undefined), the cytotoxicity at 70.5 h is -2.36%.
Take `CNC(=O)CCc1cc(C)nc(C2CCN(c3ccccc3)CC2)c1`: the cytotoxicity at 70.5 h is -3.63%.
As for `c1csc(-c2noc(C3CCCOC3)n2)c1` (centres undefined), the cytotoxicity at 70.5 h is -2.62%.
On to `CC(C)=CCN1C[C@H]2CC[C@@H]1CN(Cc1cc(=O)[nH]c(=O)[nH]1)C2`, for which the cytotoxicity at 70.5 h was -3.94%.
Regarding `Cc1ccccc1C(CC(=O)NCc1n[nH]c(N)n1)c1ccccc1` (centres undefined), the cytotoxicity at 70.5 h was -4.71%.
For the compound `Cc1cc(Br)cnc1NCCN1CCC(N(C)C)CC1`, the cytotoxicity at 70.5 h was -4.2%.
The same measure for `COc1ccccc1CN1C[C@@H](F)[C@@H](OCc2nc3ncccc3[nH]2)C1`: -0.841%; for `Cc1nnc(NC(=O)CN2CCCC2c2noc(C(C)C)n2)s1` (centres undefined): -8.98%; for `CN(C)C(=O)[C@@H]1CC[C@@H]2[C@@H](CCN2Cc2nccs2)O1`: -14.7%.
For the compound `CCCn1cnc2c1CN(C(=O)c1ccc(F)cc1)[C@H](C(=O)OC)C2`, the cytotoxicity at 70.5 h was -7.42%.
Regarding `Cc1ccccc1C1CCCN1Cc1ccc(S(=O)(=O)N(C)C)o1` (centres undefined), the cytotoxicity at 70.5 h was -2.87%.
As for `COCCc1noc(CN2CCCC2Cn2nc(C)nc2C)n1` (centres undefined), the cytotoxicity at 70.5 h was found to be 44.8%.
Take `CCNC(=O)N1CCN(Cc2nc3ccccc3[nH]2)[C@@H]2CS(=O)(=O)C[C@@H]21`: the cytotoxicity at 70.5 h was -9.34%.
As to `CCc1noc(CN(C)Cc2cc3ccc(Cl)cc3[nH]c2=O)n1`, the cytotoxicity at 70.5 h is -5.21%.
Consider `Cc1nn(C)c(C)c1CCC(=O)NCC1(C(N)=O)CCOCC1`, for which the cytotoxicity at 70.5 h is -17.6%.
For the compound `CN(C)C(=O)CN1C[C@@H]2CC[C@H](C1)N(C(=O)CCCn1cncn1)C2`, the cytotoxicity at 70.5 h was -8.72%.
Consider `Cc1noc(CN2CCC(Cc3ccc(F)cc3)CC2)n1`, for which the cytotoxicity at 70.5 h was -9.61%.
For the compound `CN1N=C(C(=O)NCCc2ccc(OC3CCCC3)cc2)CCC1=O`, the cytotoxicity at 70.5 h was 1.04%.
The same measure for `COc1ccc(C(CNC(=O)Nc2cn[nH]c2)N2CCOCC2)cc1` (centres undefined): -4.89%; for `Cc1nn(C)c2cn(C(C)C(=O)NCc3cccnc3)nc12` (centres undefined): -1.5%.
The same measure for `O=C1C(CS(=O)(=O)Nc2ccc(Br)cc2)=NC(=O)n2cccc21`: 2.35%; for `COc1ccc2nc(NC(=O)c3c(C(=O)O)cnn3C)sc2c1`: -8.88%; for `Cc1noc(C)c1CNC(=O)N1CCC(CN2CCC(C)CC2)CC1`: -2.8%.
For `CNC(=O)NC(=O)C(NCc1ccccc1)c1ccccc1` (centres undefined), the cytotoxicity at 70.5 h was 17.9%.
Take `O=C(CCc1ccccc1)C1CCCN(Cc2cncn2C2CC2)C1` (centres undefined): the cytotoxicity at 70.5 h amounted to 2.12%.
For `Cc1cc(C)n(CC2CCCCN2C(=O)c2ccc3c(c2)COC3)n1` (centres undefined), the cytotoxicity at 70.5 h came out at 2.1%.
The same measure for `Cc1ccc2c(n1)N(Cc1cccnc1)CCN(C1CCOCC1)C2`: 2.27%; for `CCc1nc(CN2CCCN(C(=O)COCC3CC3)CC2)cs1`: -12.1%; for `CC(=O)NC1CCN(c2ccnc(C3CCNCC3)c2)CC1`: -5.48%.
Regarding `c1cncc(COCc2nnc3n2CCN(Cc2ccco2)C3)c1`, the cytotoxicity at 70.5 h was 1.97%.
In the case of `COCCN1C(=O)C[C@H]2[C@H]1CCN2Cc1ccc(OC)cc1`, the cytotoxicity at 70.5 h is -7.39%.
On to `COCC1c2c(cnn2C)CCN1Cc1ccc(C)o1` (centres undefined), for which the cytotoxicity at 70.5 h is -18.3%.
To `Cc1[nH]ccc1C(=O)NC1CCC(N2C(=O)CCC2=O)CC1` (centres undefined) belongs -2.84%.
`O=C(NCC1CC1)C1CCC2(CN(C(=O)c3ccno3)C2)O1` (centres undefined): the cytotoxicity at 70.5 h is -13.9%.
As to `O=C(COc1cccnc1)N1CCOC(C(F)(F)F)C1` (centres undefined), the cytotoxicity at 70.5 h is -0.535%.
Consider `CNC(=O)C1CCCN(C(=O)c2cncs2)C1` (centres undefined), for which the cytotoxicity at 70.5 h is -9.62%.
As for `C[C@@H]1CN(Cc2ccoc2)C[C@]12CCN(CC(=O)N(C)C)C2=O`, the cytotoxicity at 70.5 h was -12%.

The record behind these values is ChEMBL document CHEMBL3507680, “University of Dundee, Gates Library screen for HepG2 cell viability”.
